Measured values taken from PubChem BioAssay AID330 (DTP/NCI, 2004).
Where “and” joins values, the source holds several entries; their conditions need not be identical. Equal entries are not always repeated. Toxic doses and inconclusive results are not listed. The calls were made as follows: active = survival T/C of 150% or more; inactive = T/C below 125% in these data.

Test system: P388 leukemia ip, CD2F1 mice, survival T/C
Experiment: NCI In Vivo Anticancer Drug Screen. Data for tumor model P388 Leukemia (intraperitoneal) in CD2F1 (CDF1) mice
Conditions: endpoint: median survival time, higher = longer survival
Procedure, shortened: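 Mice carrying the transplanted tumor received test compound or vehicle. Survival was recorded in each group, and the value is the treated-group measurement divided by that of the vehicle-treated control group.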

[1] = dose: 60.0 mg/kg/injection, schedule: Q01DX005 (ip), vehicle: Klucel (hydroxypropylcellulose) (HPC)
[2] = dose: 120.0 mg/kg/injection, schedule: Q01DX005 (ip), vehicle: Klucel (hydroxypropylcellulose) (HPC)
[3] = dose: 50.0 mg/kg/injection, schedule: Q01DX005 (ip), vehicle: Klucel (hydroxypropylcellulose) (HPC)
[4] = dose: 100.0 mg/kg/injection, schedule: Q01DX005 (ip), vehicle: Klucel (hydroxypropylcellulose) (HPC)
[5] = dose: 200.0 mg/kg/injection, schedule: Q01DX005 (ip), vehicle: Klucel (hydroxypropylcellulose) (HPC)
[6] = dose: 25.0 mg/kg/injection, schedule: Q01DX009 (ip), vehicle: saline with Tween-80
[7] = dose: 50.0 mg/kg/injection, schedule: Q01DX009 (ip), vehicle: saline with Tween-80
[8] = dose: 100.0 mg/kg/injection, schedule: Q01DX009 (ip), vehicle: saline with Tween-80
[9] = dose: 200.0 mg/kg/injection, schedule: Q01DX009 (ip), vehicle: saline with Tween-80
[10] = dose: 50.0 mg/kg/injection, schedule: Q01DX005 (ip), vehicle: saline
[11] = dose: 100.0 mg/kg/injection, schedule: Q01DX005 (ip), vehicle: saline
[12] = dose: 100.0 mg/kg/injection, schedule: Q01DX001 (ip), vehicle: saline
[13] = dose: 200.0 mg/kg/injection, schedule: Q01DX001 (ip), vehicle: saline
[14] = dose: 400.0 mg/kg/injection, schedule: Q01DX001 (ip), vehicle: saline
[15] = dose: 6.25 mg/kg/injection, schedule: Q01DX009 (ip), vehicle: saline
[16] = dose: 12.5 mg/kg/injection, schedule: Q01DX009 (ip), vehicle: saline
[17] = dose: 50.0 mg/kg/injection, schedule: Q01DX009 (ip), vehicle: Klucel (hydroxypropylcellulose) (HPC)
[18] = dose: 100.0 mg/kg/injection, schedule: Q01DX009 (ip), vehicle: Klucel (hydroxypropylcellulose) (HPC)
[19] = dose: 60.0 mg/kg/injection, schedule: Q01DX005 (ip), vehicle: saline with Tween-80
[20] = dose: 120.0 mg/kg/injection, schedule: Q01DX005 (ip), vehicle: saline with Tween-80
[21] = dose: 240.0 mg/kg/injection, schedule: Q01DX005 (ip), vehicle: saline with Tween-80
[22] = dose: 12.5 mg/kg/injection, schedule: Q01DX009 (ip), vehicle: saline with Tween-80

Measured: T/C

COc1cccc(C2c3cc4c(cc3OC(O)C2C)OCO4)c1O (configuration not stated)
inactive: [1] 99 % of control | [2] 99 % of control | dose: 240.0 mg/kg/injection, schedule: Q01DX005 (ip), vehicle: Klucel (hydroxypropylcellulose) (HPC) 100 % of control

COC1=CC=C2CC(=C1)CCC1C2CCC2(C)C(=O)CCC12 (configuration not stated)
inactive: [3] 100 % of control | [4] 96 % of control | [5] 91 % of control

Clc1cc(-c2csc(Cl)c2)cs1
inactive: [6] 97 % of control | [7] 103 % of control and 97 % of control | [8] 109 % of control | [9] 96 % of control

CC(C)C(=O)C(O)C(C)C (configuration not stated)
inactive: [10] 92 % of control | [11] 103 % of control | dose: 200.0 mg/kg/injection, schedule: Q01DX005 (ip), vehicle: saline 100 % of control

FC(F)(F)c1ccc(NC(=S)SCc2ccc3c(c2)OCO3)cc1
inactive: dose: 50.0 mg/kg/injection, schedule: Q01DX009 (ip), vehicle: suspension in saline 98 % of control | dose: 100.0 mg/kg/injection, schedule: Q01DX009 (ip), vehicle: suspension in saline 93 % of control

NC(=O)c1nc2c(Nc3cccc(Cl)c3)nc(N)nc2nc1N
inactive: [12] 100 % of control | [13] 104 % of control | [14] 104 % of control

CCOP(O)(=S)OCC.[Y]
inactive: dose: 50.0 mg/kg/injection, schedule: Q01DX001 (ip), vehicle: Klucel (hydroxypropylcellulose) (HPC) 90 % of control | dose: 100.0 mg/kg/injection, schedule: Q01DX001 (ip), vehicle: Klucel (hydroxypropylcellulose) (HPC) 87 % of control | dose: 200.0 mg/kg/injection, schedule: Q01DX001 (ip), vehicle: Klucel (hydroxypropylcellulose) (HPC) 95 % of control

CC1(C)CCCC2C1=NOC2O (configuration not stated)
inactive: dose: 50.0 mg/kg/injection, schedule: Q01DX009 (ip), vehicle: saline 100 % of control | dose: 100.0 mg/kg/injection, schedule: Q01DX009 (ip), vehicle: saline 96 % of control | dose: 200.0 mg/kg/injection, schedule: Q01DX009 (ip), vehicle: saline 100 % of control

COC1=CC(=C(c2ccc(O)c(OC)c2)c2ccc(O)c(OC)c2)C=CC1=O
inactive: dose: 50.0 mg/kg/injection, schedule: Q01DX005 (ip), vehicle: saline with Tween-80 117 % of control | dose: 100.0 mg/kg/injection, schedule: Q01DX005 (ip), vehicle: saline with Tween-80 119 % of control | dose: 200.0 mg/kg/injection, schedule: Q01DX005 (ip), vehicle: saline with Tween-80 115 % of control

COC1/C=C/OC2(C)Oc3c(C)c(O)c4c(O)c(c(/C=N/N5C(C)CN(Cc6ccc(O)cc6)CC5C)c(O)c4c3C2=O)NC(=O)C(C)=C/C=C/C(C)C(O)C(C)C(O)C(C)C(OC(C)=O)C1C (configuration not stated)
inactive: [7] 95 % of control | [8] 99 % of control | [9] 96 % of control

CC(C)CC(NC(c1ccccc1)(c1ccccc1)c1ccccc1)C(=O)O (configuration not stated)
inactive: [1] 103 % of control | [2] 106 % of control

C=C1CC2(CC(C)CCC2C(C)C)OC1=O (configuration not stated)
inactive: [12] 97 % of control | [13] 100 % of control | [14] 111 % of control

CSC(=Cc1ccc2cc(Br)ccc2[n+]1C)SC
inactive: dose: 3.12 mg/kg/injection, schedule: Q01DX009 (ip), vehicle: Klucel (hydroxypropylcellulose) (HPC) 110 % of control | dose: 6.25 mg/kg/injection, schedule: Q01DX009 (ip), vehicle: Klucel (hydroxypropylcellulose) (HPC) 117 % of control and 121 % of control | dose: 25.0 mg/kg/injection, schedule: Q01DX009 (ip), vehicle: Klucel (hydroxypropylcellulose) (HPC) 107 % of control

CCC[N+]1(CC)CCCCC1
inactive: dose: 3.12 mg/kg/injection, schedule: Q01DX009 (ip), vehicle: saline 103 % of control | [15] 99 % of control | [16] 100 % of control

NC1=NN(O)C2=CC(F)C=CC2=N1 (configuration not stated)
inactive: [17] 103 % of control and 91 % of control | [18] 101 % of control and 114 % of control and 92 % of control | dose: 200.0 mg/kg/injection, schedule: Q01DX009 (ip), vehicle: Klucel (hydroxypropylcellulose) (HPC) 100 % of control and 91 % of control | dose: 400.0 mg/kg/injection, schedule: Q01DX009 (ip), vehicle: Klucel (hydroxypropylcellulose) (HPC) 105 % of control

Clc1ccc(/C=N/Nc2nnc3c(n2)[nH]c2ccccc23)cc1
inactive: dose: 100.0 mg/kg/injection, schedule: Q04DX002 (ip), vehicle: saline with Tween-80 99 % of control | dose: 200.0 mg/kg/injection, schedule: Q04DX002 (ip), vehicle: saline with Tween-80 100 % of control | dose: 400.0 mg/kg/injection, schedule: Q04DX002 (ip), vehicle: saline with Tween-80 90 % of control

NCC[Se]CC(N)C(=O)O (configuration not stated)
inactive: [15] 101 % of control | [16] 100 % of control | dose: 25.0 mg/kg/injection, schedule: Q01DX009 (ip), vehicle: saline 101 % of control

CCN(CC)C(=O)C1CN2CCc3cc(OC)c(OC)cc3C2CC1O (configuration not stated)
inactive: [3] 104 % of control and 108 % of control | [4] 106 % of control and 109 % of control | [5] 123 % of control

CC(=O)O[C@@H]1C(C(=O)[C@@H](C)C(C)C)OCOC1C1CC(=O)NC(=O)C1 (some centres not stated)
inactive: dose: 0.01 mg/kg/injection, schedule: Q01DX009 (ip), vehicle: distilled water + alcohol 100 % of control | dose: 0.03 mg/kg/injection, schedule: Q01DX009 (ip), vehicle: distilled water + alcohol 100 % of control | dose: 0.06 mg/kg/injection, schedule: Q01DX009 (ip), vehicle: distilled water + alcohol 93 % of control | dose: 0.12 mg/kg/injection, schedule: Q01DX009 (ip), vehicle: distilled water + alcohol 98 % of control

CC(C)c1ccc(N2C=Nc3ccc(C(C)C)cc3C2)cc1
inactive: dose: 50.0 mg/kg/injection, schedule: Q01DX009 (ip), vehicle: other 92 % of control | dose: 100.0 mg/kg/injection, schedule: Q01DX009 (ip), vehicle: other 99 % of control | dose: 200.0 mg/kg/injection, schedule: Q01DX009 (ip), vehicle: other 99 % of control

Cc1cc(=O)c2ccc(Cl)c(C)c2[nH]1
inactive: [19] 110 % of control | [20] 93 % of control | [21] 103 % of control

CCCCN1CN(CCCC)CN(C(=S)c2c(Cl)cccc2Cl)C1
inactive: [6] 102 % of control | [7] 102 % of control | [8] 105 % of control

CCN(CC)CCOCCCNc1ccnc2cc(Cl)ccc12
inactive: [10] 100 % of control | [11] 103 % of control

O=C(CNC(=O)NCc1ccco1)NNC(=O)Nc1ccc(Cl)c([N+](=O)[O-])c1
inactive: [19] 95 % of control | [20] 94 % of control | [21] 97 % of control

COC(=O)c1[nH]c(=O)c2ccc([N+](=O)[O-])cc2c1O
inactive: [7] 86 % of control | [8] 88 % of control | [9] 86 % of control

CCC(C)N(CCNc1cc(OC)cc2cccnc12)CC(C)C (configuration not stated)
inactive: dose: 12.5 mg/kg/injection, schedule: Q01DX005 (ip), vehicle: saline 104 % of control | dose: 25.0 mg/kg/injection, schedule: Q01DX005 (ip), vehicle: saline 104 % of control | [10] 101 % of control and 95 % of control

O=[N+]([O-])c1ccc(-c2nc(/C=N/N3CCS(=O)(=O)CC3)cs2)o1
inactive: [6] 99 % of control | [7] 99 % of control | [8] 100 % of control

COc1ccc(S(=O)(=O)N2OC2c2ccccc2)cc1 (configuration not stated)
inactive: [17] 100 % of control | [18] 100 % of control

Cc1cc(O[Si](C)(C)C)nc(O[Si](C)(C)C)n1
inactive: [19] 106 % of control | [20] 110 % of control | [21] 105 % of control

CCCCCCCCP(=O)(N1CC1C)N1CC1C (configuration not stated)
inactive: dose: 3.13 mg/kg/injection, schedule: Q01DX009 (ip), vehicle: saline 109 % of control | [15] 109 % of control | [22] 122 % of control | [16] 109 % of control | dose: 12.5 mg/kg/injection, schedule: Q04DX003 (ip), vehicle: saline with Tween-80 100 % of control | dose: 25.0 mg/kg/injection, schedule: Q04DX003 (ip), vehicle: saline with Tween-80 95 % of control | dose: 50.0 mg/kg/injection, schedule: Q04DX003 (ip), vehicle: saline with Tween-80 109 % of control | dose: 50.0 mg/kg/injection, schedule: Q04DX003 (ip), vehicle: saline 108 % of control

CC(=Nc1ccccc1)Nc1ccccc1.[Cu+2]
inactive: [22] 109 % of control | [6] 105 % of control | [7] 105 % of control
